Tested on: T1, ferritin (Mus musculus)
T1 construct: ferritin expression levels in B16F10 cells were evaluated; endogenous in cells; host or cells: B16F10 (murine melanoma)
Assay: Western blot of ferritin expression (ferritin degradation) in B16F10 cells
Type: cell-based, murine
Conditions: B16F10 cells
Experimental: Western blot analysis: After various treatments, ferritin expression levels in B16F10 cells were evaluated to investigate the DeFer-2-mediated ferritin degradation. Briefly, B16F10 cells were seeded in 6-well culture plates (5×10^4 cells per well) and cultured for 24 h. Then the medium in the corresponding wells except the negative control was replaced with 1 mL of medium containing ferritin degraders, albumin nanoparticles, the epimer formulations, the combination of VHL ligand and oleic acid, or the combination of the degrader and VHL ligand at the indicated concentrations. […] The lysates were centrifuged at 12,000 rpm for 10 min at 4° C., followed by quantification of the total proteins in the supernatant through the bicinchoninic acid assay (BCA) assay. Afterward, the proteins in the supernatant were mixed with the loading buffer and heated at 95° C. for 15 min. Equal amounts of proteins from different samples were loaded into 15% SDS-polyacrylamide gel (20 μg protein per lane) to separate target proteins. After separation, proteins were transferred to polyvinylidene fluoride (PVDF) membranes before the membranes were blocked with 5% nonfat milk in PBST. Then proteins were incubated with primary antibodies overnight at 4° C., followed by the incubation with the goat-anti-rabbit IgG H&L (HRP) secondary antibodies at room temperature for 2 h. Finally, the bands were detected with electrochemiluminescence (ECL) western blot substrate for imaging, and ImageJ software was used for quantification.

Q: CCCCCCCCC=CCCCCCCCC(=O)NCCCC(=O)NC(C(=O)N1CC(O)CC1C(=O)NCc1ccc(-c2scnc2C)cc1)C(C)(C)C (stereo not shown) [DeFer-2] was tested. Which “ferritin expression over time” value (0.5 μM, 0-24 h) did it give?
A: The value was “reduced the ferritin expression in a time-dependent manner”.

Q: What about the ferritin degradation (0.5 μM, 12 h (FIG. 5A)) of the same molecule?
A: The ferritin degradation was “successfully induced the ferritin degradation”.

Q: What about the “degradation capacity compared among the three PROTACs” value (0.5 μM, different time points) of the same molecule?
A: The value was “most potent degradation capacity with a longer duration of action”.

Q: And the maximum ferritin degraded (5 μM, 12 h)?
A: The maximum ferritin degraded was 58%.
